Here are results for 5 molecules from patent publication US20260070886A1, “QUINOLINE PIPERAZINE DERIVATIVES, PHARMACEUTICAL COMPOSITION AND USES THEREOF” (priority 2022, published 2026).

The test system of series [1] is NCI-H-460 cells. Kind of series: Cell cytotoxicity assay, NCI-H-460 cells. In kind it is cell-based. Conditions: Homo sapiens, NCI-H460, 72 hours, percent cytotoxicity against DMSO control; for cytotoxicity at 1 µM: 1 μM compound, read-out: Cell toxicity NCI-H-460 cells 1 μM; for cytotoxicity at 10 µM: 10 μM compound, read-out: Cell toxicity NCI-H-460 cells 10 μM. An excerpt:
(§1) The following human derived non-small cell lung cancer cell lines were used to test the efficiency of the compounds to cause cell death and assess the anti-cancer properties of said compounds: 1. A549 cells: adenocarcinomic human alveolar basal epithelial cells; these cells are used as models for the study of lung cancer and the development of drug therapies against it • 2. NCI-H-460 cells are also human lung cancer cells, and • 3. NCI-H-522 cells are also human lung cancer cells.
(§2) 500 cells/well/30 μL were seeded in a 384 well cell culture plate. Incubated over night at 37° C., 5% CO2 in cell culture incubator. 10 μL of 4× compound was added to the plates, and incubated for 72 hours at 37° C., 5% CO2 in cell culture incubator. Assay DMSO control were included for 0% cytotoxicity control. Assay was terminated by addition of 10 μL of the reagent CTG 2.0 detection reagent #G9242. Plates were incubated for 20 minute incubation at room temperature with shaking Plate were read in Envision. Ultrasensitive luminescence and data was analyzed and percent cytotoxicity of compounds was determined against DMSO control.
(§3) All the compounds, A1-A116, were tested for cell toxicity using said non-small cell lung cancer cell lines using the above described method.

Series [2] deals with NCI-H-522 cells. Kind of series: Cell cytotoxicity assay, NCI-H-522 cells. In kind it is cell-based. The settings on record: Homo sapiens, NCI-H522, 72 hours, percent cytotoxicity against DMSO control; for cytotoxicity at 1 µM: 1 μM compound, read-out: Cell toxicity NCI-H-522 cells 1 μM; for cytotoxicity at 10 µM: 10 μM compound, read-out: Cell toxicity NCI-H-522 cells 10 μM.
Description: as §1, §2, §3

Series [3] has as its system A549 cells. Kind of series: Cell cytotoxicity assay, A549 cells. It is filed as cell-based. The settings on record: Homo sapiens, 72 hours, percent cytotoxicity against DMSO control; for cytotoxicity at 1 µM: 1 μM compound, read-out: Cell toxicity A549 cells 1 μM; for cytotoxicity at 10 µM: 10 μM compound, read-out: Cell toxicity A549 cells 10 μM.
Description: as §1, §2, §3

For series [4], the system named is A549. Kind of series: CellTiter Glo assay, A549. It is filed as cell-based. The settings on record: Homo sapiens, 72 hours, 10 point DRC, 100 μM top, read-out: Cytotoxicity IC50 A549.
Description: as §1
(§4) Cells were cultured and maintained in F12K+10% FBS+1× anti-anti media and RPMI+10% FBS+1× anti-anti media. Cells were trypsinised and expanded to ensure that cells are not over-confluent and are in log growth phase. On day 0, 500 cells/well were seeded in 30 μl media using cell culture treated white flat bottom 384 well plate, centrifuged at 40×g for 10 seconds and incubated overnight in […], 5% CO2 incubator. On day 1, 4× concentration of compounds were prepared in complete media, 10 μl was added to cells, centrifuged at 40×g for 10 seconds and incubated 72 hours in 37° C., 5% CO2 incubator. Compounds tested: 100 μM top, 3 fold dilution and 10 point DRC in triplicate. Final DMSO concentration was maintained at 0.5% for all compound. No compound/DMSO was used as a control. On day 4 (72 hours post treatment) plates were brought to room temperature for 10 min 10 μl of CellTiter Glo reagent was added to each well and placed the plates on an orbital shaker for 10 minutes at room temperature. Luminescence signal was read on the Envision plate reader using the ultra-sensitive luminescence protocol. Data was plotted and analyzed using the below formula: DMSO control treated cells RLU considered as 100% cell viability.
(§5) Table 7 provides the IC50 values for cell toxicity of most efficient derivatives of Formula A.

For series [5], the system named is NCI-H-522. Kind of series: CellTiter Glo assay, NCI-H-522. The settings on record: Homo sapiens, NCI-H522; 72 hours, 10 point DRC, 100 μM top; read-out: Cytotoxicity IC50 NCI-H-522. It is filed as cell-based.
Description: as §1, §4, §5
On the technique in general: ATP-based viability assays read luminescence as a measure of living cells.

The test system of series [6] is NCI-H-460. Kind of series: CellTiter Glo assay, NCI-H-460. It is filed as cell-based. Conditions: Homo sapiens, NCI-H460; 72 hours, 10 point DRC, 100 μM top; read-out: Cytotoxicity IC50 NCI-H-460.
Description: as §1, §4, §5

Series [7] concerns Non-small cell lung cancer cell lines. Kind of series: Cell Titer Glo assay, overall statement. In kind it is cell-based, human. The settings on record: summary in words.
Description: as §1, §4, §5

The test system is the same in series [8]. Kind of series: Cell toxicity assay, overall statement. In kind it is cell-based. The settings on record: summary in words of Table 6.
Description: as §1, §2, §3
These selected derivatives of Formula A were further tested to confirm their efficiency as anti-cancer compounds.

`COc1cc(Nc2nc(N3CCN(c4ccnc5cc(F)ccc45)CC3)cc(C(F)(F)F)n2)cc(OC)c1` [Compound A49, N-(3,5-dimethoxyphenyl)-4-(4-(7-fluoroquinolin-4-yl)piperazin-1-yl)-6-(trifluoromethyl)pyrimidin-2-amine]: the cytotoxicity at 1 µM in series [1] is 3%; in series [2], 45%; in series [3], 64%. Moreover, the cytotoxicity at 10 µM in series [1] worked out at 59%; in series [2], 77%; in series [3], 99%. Further, the values for the half-inhibitory concentration (IC50) in series [4], in series [5] and in series [6] were 0.576 µM, 1.84 µM and 0.842 µM, respectively. In addition, in series [7], the “efficiency in cell toxicity against Non-small cell lung cancer cell lines” value is given as “best efficiency”. In series [8], the “activity against Non-small cell lung cancer (cell toxicity)” value is given as “active”.

`COc1cc(Nc2nc(N3CCN(c4ccnc5cc(Cl)ccc45)CC3)cc(C(F)(F)F)n2)cc(OC)c1` [Compound A1, 4-(4-(7-chloroquinolin-4-yl)piperazin-1-yl)-N-(3,5-dimethoxyphenyl)-6-(trifluoromethyl)pyrimidin-2-amine]: the cytotoxicity at 1 µM was 19% in series [1], 21% in series [2] and 42% in series [3]. The cytotoxicity at 10 µM in series [1] worked out at 82%; in series [2], 50%; in series [3], 97%. Also, the IC50 (usually the concentration that inhibits the measured activity by half) in series [4] came out at 1.59 µM; in series [5], 3.04 µM; in series [6], 2.41 µM. The “efficiency in cell toxicity against Non-small cell lung cancer cell lines” value in series [7] is given as “best efficiency”. Also, the “activity against Non-small cell lung cancer (cell toxicity)” value in series [8] is “active”.

Take `COc1cc(Nc2nc(C)cc(N3CCN(c4ccnc5ccccc45)CC3)n2)cc(OC)c1` [Compound A42, N-(3,5-dimethoxyphenyl)-4-methyl-6-(4-(quinolin-4-yl)piperazin-1-yl)pyrimidin-2-amine]: the results for the cytotoxicity at 1 µM in series [1], in series [2] and in series [3] were 4%, 20% and 68%, respectively. The cytotoxicity at 10 µM in series [1] is 67%; in series [2], 80%; in series [3], 98%. Further, the concentration for half-maximal inhibition (IC50) in series [4] turned out to be 1.01 µM; in series [5], 4.21 µM; in series [6] it was 2.35 µM. Also, in series [7], the “efficiency in cell toxicity against Non-small cell lung cancer cell lines” value is on record as “best efficiency”. The “activity against Non-small cell lung cancer (cell toxicity)” value in series [8] is on record as “active”.

For the molecule `COc1cc(Nc2nc(N3CCN(c4ccnc5ccccc45)CC3)cc(C(F)(F)F)n2)cc(OC)c1` [Compound A43, N-(3,5-dimethoxyphenyl)-4-(4-(quinolin-4-yl)piperazin-1-yl)-6-(trifluoromethyl)pyrimidin-2-amine], the results for the cytotoxicity at 1 µM in series [1], in series [2] and in series [3] were 8%, 48% and 88%, respectively. Besides, the values for the cytotoxicity at 10 µM in series [1], in series [2] and in series [3] were 65%, 73% and 99%, respectively. Also, the 50% inhibitory concentration (IC50) worked out at 0.665 µM in series [4], 1.23 µM in series [5] and 0.943 µM in series [6]. Moreover, in series [7], the “efficiency in cell toxicity against Non-small cell lung cancer cell lines” value is “best efficiency”. Also, in series [8], the “activity against Non-small cell lung cancer (cell toxicity)” value was “active”.

For `COc1cncc(Nc2nc(N3CCN(c4ccnc5cc(Cl)ccc45)CC3)cc(C(F)(F)F)n2)c1` [Compound A7, 4-(4-(7-chloroquinolin-4-yl)piperazin-1-yl)-N-(5-methoxypyridin-3-yl)-6-(trifluoromethyl)pyrimidin-2-amine], the cytotoxicity at 1 µM in series [1] is -1%; in series [2], 18%; in series [3], 53%. For the same molecule, the cytotoxicity at 10 µM in series [1] came to 25%; in series [2] it was 42%; in series [3], 65%. For the same molecule, the IC50 in series [4] is 4.19 µM; in series [5], 2.56 µM; in series [6], 3.42 µM. In addition, in series [7], the “efficiency in cell toxicity against Non-small cell lung cancer cell lines” value is “best efficiency”. In addition, in series [8], the “activity against Non-small cell lung cancer (cell toxicity)” value is listed as “active”.
